# Literature values as cited in patent US7858570B2, “Compositions and methods for removing urushiol and treating the resulting skin condition” (priority 2004, dated 2010).
# What was measured:
# [1] = tested on: human immuno deficiency virus; conditions: in the test tube
# [2] = for cloud point: 1% H2O
# [3] = in vivo
Compound,cloud point [2],further results
"NC(=O)NC1NC(=O)NC1=O (centres unmarked) [allantoin, glyoxyl-diureide]",,solubility in water (at 25° C.): 0.5%; solubility (in words) (water and alcohol): soluble in water and alcohol
"CCCCCCCCCc1ccc(OCCOCCOCCOCCOCCOCCOCCOCCOCCO)cc1 [nonoxynol-9, nonylphenoxypolyethoxyethanol]",,concentration in a solution that stops HIV from reproducing [1]: 0.05%
nonylphenol ethoxylate [2 mol nonylphenol ethoxylate],less than 25 °C,
nonylphenol ethoxylate [4 mol nonylphenol ethoxylate],less than 25 °C,
nonylphenol ethoxylate [5 mol nonylphenol ethoxylate],less than 25 °C,
nonylphenol ethoxylate [6 mol nonylphenol ethoxylate],less than 25 °C,
nonylphenol ethoxylate [8 mol nonylphenol ethoxylate],less than 25 °C,
nonylphenol ethoxylate [10 mol nonylphenol ethoxylate],,pH ([2]; 10% sol.): 6.3
nonylphenol ethoxylate [12 mol nonylphenol ethoxylate],78-83 °C,
nonylphenol ethoxylate [14 mol nonylphenol ethoxylate],92-99 °C,
nonylphenol ethoxylate [30 mol nonylphenol ethoxylate],greater than 100 °C,
nonylphenol ethoxylate [50 mol nonylphenol ethoxylate],greater than 100 °C,
urushiol,,time from skin exposure until rash breaks out [3]: 24 to 72 h
